Measurements: ChEMBL document CHEMBL4725481, “Novel Betulinic Acid-Nucleoside Hybrids with Potent Anti-HIV Activity” (ACS Med Chem Lett, 2020)

What was measured:
[1] = Antiviral activity against HIV 1 NL4-3 infected in human MT4 cells assessed as reduction in viral replication and measured on day 3 post infection by Nano-glo luciferase reporter assay; format: functional, cell-based
[2] = Cytotoxicity against human MT4 cells treated for 3 days measured by Celltiter-glo luminescent assay; format: cell-based; details: time 3 day
[3] = Selectivity index, ratio of CC50 for human MT4 cells to EC50 for antiviral activity against HIV1 NL4-3; format: toxicity
[4] = Homo sapiens, NL4-3, MT4, 72 h, read-out: IC50

Work on [N-]=[N+]=N[C@]1(CO)O[C@@H](n2ccc(=O)[nH]c2=O)[C@@H](F)[C@@H]1O yielded an IC50 [1, 4] of 219 nM, a CC50 at 72 h [2] greater than 3480 nM and a selectivity ratio [3] greater than 16.

For C=C(C)[C@@H]1CC[C@]2(C(=O)OC)CC[C@]3(C)[C@H](CC[C@@H]4[C@@]5(C)C[C@@H](Cc6cn([C@]7(CO)O[C@@H](n8ccc(O)nc8=O)[C@@H](F)[C@@H]7O)nn6)[C@H](O)C(C)(C)[C@@H]5CC[C@]43C)[C@@H]12, the IC50 ([1]; mt4) was “Not Active”.

C=C(C)[C@@H]1CC[C@]2(C(=O)O)CC[C@]3(C)[C@H](CC[C@@H]4[C@@]5(C)C[C@@H](Cc6cn([C@]7(CO)O[C@@H](n8ccc(O)nc8=O)[C@@H](F)[C@@H]7O)nn6)[C@H](O)C(C)(C)[C@@H]5CC[C@]43C)[C@@H]12 gave an IC50 [1, 4] of 20 nM, a CC50 at 72 h [2] of 23800 nM and a selectivity ratio [3] of 1190.

For C=C(C)[C@@H]1CC[C@]2(C(=O)OC)CC[C@]3(C)[C@H](CC[C@@H]4[C@@]5(C)C[C@@H](Cc6cn([C@H]7C[C@H](n8cc(C)c(O)nc8=O)O[C@@H]7CO)nn6)C(=O)C(C)(C)[C@@H]5CC[C@]43C)[C@@H]12, the IC50 ([1]; mt4) was “Not Active”.

In the case of C=C(C)[C@@H]1CC[C@]2(C(=O)OC)CC[C@]3(C)[C@H](CC[C@@H]4[C@@]5(C)C[C@@H](Cc6cn([C@]7(CO)O[C@@H](n8ccc(O)nc8=O)[C@@H](F)[C@@H]7O)nn6)C(=O)C(C)(C)[C@@H]5CC[C@]43C)[C@@H]12, the IC50 ([1]; mt4) is reported as “Not Active”.

With C=C(C)[C@@H]1CC[C@]2(C(=O)OC)CC[C@]3(C)[C@H](CC[C@@H]4[C@@]5(C)C[C@@H](Cc6cn([C@]7(CO)O[C@@H](n8ccc(N)nc8=O)[C@@H](F)[C@@H]7O)nn6)C(=O)C(C)(C)[C@@H]5CC[C@]43C)[C@@H]12 the IC50 [1, 4] was 97 nM, the CC50 at 72 h [2] was greater than 25200 nM and the selectivity ratio [3] was greater than 260.

Molecule C=C(C)[C@@H]1CC[C@]2(C(=O)O)CC[C@]3(C)[C@H](CC[C@@H]4[C@@]5(C)C[C@@H](Cc6cn([C@H]7C[C@H](n8cc(C)c(O)nc8=O)O[C@@H]7CO)nn6)[C@H](O)C(C)(C)[C@@H]5CC[C@]43C)[C@@H]12 has an IC50 [1, 4] greater than 1300 nM and a CC50 at 72 h [2] greater than 1300 nM.

With C=C(C)[C@@H]1CC[C@]2(C(=O)OC)CC[C@]3(C)[C@H](CC[C@@H]4[C@@]5(C)C[C@@H](Cc6cn([C@]7(CO)O[C@@H](n8ccc(N)nc8=O)[C@@H](F)[C@@H]7O)nn6)[C@H](O)C(C)(C)[C@@H]5CC[C@]43C)[C@@H]12 the IC50 [1, 4] was 48 nM, the CC50 at 72 h [2] was greater than 25200 nM and the selectivity ratio [3] was greater than 525.

C=C(C)[C@@H]1CC[C@]2(C(=O)OC)CC[C@]3(C)[C@H](CC[C@@H]4[C@@]5(C)C[C@@H](Cc6cn([C@H]7C[C@H](n8cc(C)c(O)nc8=O)O[C@@H]7CO)nn6)[C@H](O)C(C)(C)[C@@H]5CC[C@]43C)[C@@H]12 gave an IC50 [1, 4] greater than 1300 nM and a CC50 at 72 h [2] greater than 1300 nM.

For C=C(C)[C@@H]1CC[C@]2(C(=O)O)CC[C@]3(C)[C@H](CC[C@@H]4[C@@]5(C)C[C@@H](Cc6cn([C@]7(CO)O[C@@H](n8ccc(N)nc8=O)[C@@H](F)[C@@H]7O)nn6)[C@H](O)C(C)(C)[C@@H]5CC[C@]43C)[C@@H]12, the IC50 [1, 4] was 7.8 nM, the CC50 at 72 h [2] was 9600 nM and the selectivity ratio [3] was 1230.

With C=C(C)[C@@H]1CC[C@]2(C(=O)O)CC[C@]3(C)[C@H](CC[C@@H]4[C@@]5(C)CC[C@H](OC(=O)CC(C)(C)C(=O)O)C(C)(C)[C@@H]5CC[C@]43C)[C@@H]12 [BEVIRIMAT] the IC50 [1, 4] was greater than 21 nM, the CC50 at 72 h [2] was greater than 6840 nM and the selectivity ratio [3] was greater than 326.

In the case of [N-]=[N+]=N[C@]1(CO)O[C@@H](n2ccc(N)nc2=O)[C@@H](F)[C@@H]1O [RO-0622], the IC50 [1, 4] is reported as 0.262 nM, the CC50 at 72 h [2] is reported as 99.6 nM and the selectivity ratio [3] is reported as 380.

Work on Cc1cn([C@H]2C[C@H](N=[N+]=[N-])[C@@H](CO)O2)c(=O)[nH]c1=O [ZIDOVUDINE] yielded an IC50 [1, 4] of 18 nM, a CC50 at 72 h [2] greater than 370 nM and a selectivity ratio [3] greater than 20.6.
